Target: HamA (Burkholderia cenocepacia, UniProt A0A144VC93)
Test: microscale thermophoresis
Assay type: binding

## O=C(O)CCC(=O)C(=O)O [2-oxoglutarate]
  Kd: 208 ± 1.42 µM

Reference: publication PMC12522199 (RSC Advances, 2025)
